# Reference: ChEMBL document CHEMBL2046436, “Synthesis and structure-activity relationships of benzophenone-bearing diketopiperazine-type anti-microtubule agents” (Bioorg Med Chem, 2012)
# Active and inactive are the calls of the source. The calls are words filed in the database; no cut-off is given here.
# What was measured:
# [1] = system: HT-29; assay: Cytotoxicity against human HT-29 cells after 48 hrs by Resazurin assay; conditions: HT-29, 48 h
# [2] = system: HT-29; assay: Cytotoxicity against human HT-29 cells after 48 hrs by resazurin assay; assay type: functional, cell-based; conditions: HT-29, 48 h
# [3] = Inhibition of bovine brain microtubule polymerization by spectrophotometric analysis; parameters: species or system Bos taurus
# [4] = system: A549; assay: Cytotoxicity against human A549 cells after 48 hrs by WST-8 assay; assay type: functional, cell-based; conditions: A549, 48 h
# [5] = system: HeLa; assay: Antimitotic activity in human HeLa cells assessed as disruption of interphase microtubule network at 10 nM after 6 hrs by DAPI staining-based immunofluorescence analysis; assay type: functional, cell-based
# [6] = system: HeLa; assay: Antimitotic activity in human HeLa cells assessed as change in dipolar spindle formation in metaphase at 1 nM after 6 hrs by DAPI staining-based immunofluorescence analysis; assay type: functional, cell-based
# [7] = system: HeLa; assay: Antimitotic activity in human HeLa cells assessed as multipolar spindle formation at 3 nM after 6 hrs by DAPI staining-based immunofluorescence analysis; assay type: functional, cell-based
# [8] = system: HeLa; assay: Cytotoxicity against human HeLa cells after 48 hrs by WST-8 assay; assay type: functional, cell-based
# [9] = system: HeLa; assay: Antimitotic activity in human HeLa cells assessed as disruption of interphase microtubule network at 3 nM after 6 hrs by DAPI staining-based immunofluorescence analysis; assay type: functional, cell-based
# [10] = system: HeLa; assay: Antimitotic activity in human HeLa cells assessed as microtubule network damage at interphase at 1 nM after 6 hrs by DAPI staining-based immunofluorescence analysis; assay type: functional, cell-based
# [11] = biological target: tubulin (Sus scrofa); assay: Binding affinity to porcine tubulin by spectrophotometric analysis
smiles,measurement,setting,value
COc1ccccc1C(=O)c1cccc(/C=c2\[nH]c(=O)/c(=C/c3nc[nH]c3C(C)(C)C)[nH]c2=O)c1,IC50,[1],0.36 µM
CC(C)(C)c1[nH]cnc1/C=c1\[nH]c(=O)/c(=C/c2ccc3c(c2)C(=O)c2ccccc2-3)[nH]c1=O,IC50,[2],2.8 µM
CC(C)(C)c1[nH]cnc1/C=c1\[nH]c(=O)/c(=C/c2cccc(C(=O)c3ccccc3F)c2)[nH]c1=O,IC50,[1],0.003 µM
COc1cccc(C(=O)c2cccc(/C=c3\[nH]c(=O)/c(=C/c4nc[nH]c4C(C)(C)C)[nH]c3=O)c2)c1,IC50,[1],0.039 µM
CC(C)(C)c1[nH]cnc1/C=c1\[nH]c(=O)/c(=C/c2cccc(C(=O)c3ccc(Cl)cc3)c2)[nH]c1=O,IC50,[1],0.0011 µM
COc1ccc(C(=O)c2cccc(/C=c3\[nH]c(=O)/c(=C/c4nc[nH]c4C(C)(C)C)[nH]c3=O)c2)cc1,IC50,[1],0.0038 µM
COc1cc(C(=O)c2cccc(/C=c3\[nH]c(=O)/c(=C/c4nc[nH]c4C(C)(C)C)[nH]c3=O)c2)cc(OC)c1OC,IC50,[1],2.5 µM
CC(C)(C)c1[nH]cnc1/C=c1\[nH]c(=O)/c(=C/c2ccc(C(=O)c3ccccc3)cc2)[nH]c1=O,IC50,[1],1.2 µM
CC(C)(C)c1[nH]cnc1/C=c1\[nH]c(=O)/c(=C/c2cccc(C(=O)c3ccccc3Cl)c2)[nH]c1=O,IC50,[1],0.006 µM
COc1ccc(/C=C\c2cc(OC)c(OC)c(OC)c2)cc1O [COMBRETASTATIN A4],IC50,[3],0.55 µM
same,IC50,[4],0.0053 µM
same,Activity,[5],Active
same,Activity,[6],inactive
same,Activity,[7],Active
same,IC50,[8],0.0022 µM
same,Activity,[9],inactive
same,IC50,[2],12 µM
same,Activity,[10],inactive
CC(C)(C)c1[nH]cnc1/C=c1\[nH]c(=O)/c(=C/c2cccc(C(=O)c3ccc(Br)cc3)c2)[nH]c1=O,IC50,[1],0.004 µM
COc1cc2c(c(OC)c1OC)-c1ccc(OC)c(=O)cc1[C@@H](NC(C)=O)CC2 [COLCHICINE],IC50,[4],0.0506 µM
same,IC50,[1],0.0093 µM
same,IC50,[8],0.0202 µM
CC(C)(C)c1[nH]cnc1/C=c1\[nH]c(=O)/c(=C/c2cccc(C(O)c3ccccc3)c2)[nH]c1=O (centres undefined),IC50,[1],0.041 µM
CC(C)(C)c1[nH]cnc1/C=c1\[nH]c(=O)/c(=C/c2cccc(C(=O)c3ccc(F)cc3)c2)[nH]c1=O,IC50,[3],0.9 µM
same,Kd,[11],0.072 µM
same,IC50,[4],0.0008 µM
same,Activity,[5],Active
same,Activity,[6],inactive
same,Activity,[7],Active
same,IC50,[1],0.0005 µM
same,IC50,[8],0.0017 µM
same,Activity,[9],Active
same,Activity,[10],inactive
COc1ccc(C(=O)c2cccc(/C=c3\[nH]c(=O)/c(=C/c4nc[nH]c4C(C)(C)C)[nH]c3=O)c2)c(OC)c1,IC50,[1],1.8 µM
COc1ccc(C(=O)c2cccc(/C=c3\[nH]c(=O)/c(=C/c4nc[nH]c4C(C)(C)C)[nH]c3=O)c2)cc1OC,IC50,[1],7.3 µM
CC(C)(C)c1[nH]cnc1/C=c1\[nH]c(=O)/c(=C/c2cccc(C(=O)c3cccc(Cl)c3)c2)[nH]c1=O,IC50,[1],0.002 µM
CC(C)(C)c1[nH]cnc1/C=c1\[nH]c(=O)/c(=C/c2cccc(C(=O)c3cccc(F)c3)c2)[nH]c1=O,IC50,[1],0.0006 µM
COc1cccc(C(=O)c2cccc(/C=c3\[nH]c(=O)/c(=C/c4nc[nH]c4C(C)(C)C)[nH]c3=O)c2)c1OC,IC50,[1],0.955 µM
CC(C)(C)c1[nH]cnc1/C=c1\[nH]c(=O)/c(=C/c2cccc(C(=O)c3ccc(C(F)(F)F)cc3)c2)[nH]c1=O,IC50,[1],0.147 µM
